Test results published in patent US8119630B2 (Arrow Therapeutics Limited, priority 2002, dated 2012).

Tests used:
Hep-2 cells = assay: Toxicity studies (XTT), Hep-2 cells; format: cell-based; set-up: TC50 (6d): unit not given beside the values; conditions: for TC50 (2d): Table 2, Examples 75 to 82 and 125 to 184, 2d; for TC50 (6d): Table 2, Examples 75 to 82 and 125 to 184, 6d, in µM
RSV = assay: XTT assay, RSV-infected Hep-2 cells; format: cell-based, Respiratory Syncytial Virus (RSV); conditions: Table 2, Examples 75 to 82 and 125 to 184; Hep-2 cells infected with RSV, 6 days at 37° C.
Outline: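 Hep-2 cells (4×10^4/well) infected with RSV titrated for 80% cell kill and treated with 25 μM compound (0.5% DMSO) for 6 days at 37 °C. Viability read by XTT/PMS at OD450 after 1 h; uninfected control set as 100% and infected control as 0% inhibition, with IC50 from graph or regression.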

| Substance | TC50 (2d) (Hep-2 cells) [µM] | TC50 (6d) (Hep-2 cells) | IC50 (RSV) [µM] |
| --- | --- | --- | --- |
| Furan-2-carboxylic acid [5-(3-chloro-phenyl)-2-oxo-5-phenyl-2,3-dihydro-1H-benzo[e][1,4]diazepin-3-yl]-amide [Example 156] | 100 | 100 | 1.5 |
| N-[5-(3-Chloro-phenyl)-2-oxo-5-phenyl-2,3-dihydro-1H-benzo[e][1,4]diazepin-3-yl)acetamide [Example 154] | > 100 | >100 | 3 |
| N-[5-(3-Chloro-phenyl)-2-oxo-5-phenyl-2,3-dihydro-1H-benzo[e][1,4]diazepin-3-yl]-isobutyramide [Example 155] | > 100 | >100 | 6 |
| N-[5-(3-Chloro-phenyl)-2-oxo-5-phenyl-2,3-dihydro-1H-benzo[e][1,4]diazepin-3-yl]isonicotinamide [Example 160] | > 100 | >100 | 10 |
| Piperidine-1-carboxylic acid [5-(3-chloro-phenyl)-2-oxo-5-phenyl-2,3-dihydro-1H-benzo[e][1,4]diazepin-3-yl]-amide [Example 159] | > 100 | >100 | 2 |
| Piperidine-1-carboxylic acid [5-(3-methoxy-phenyl)-2-oxo-5-phenyl-2,3-dihydro-1H-benzo[e][1,4]diazepin-3-yl]-amide [Example 166] | > 100 | >100 | 5 |
| Piperidine-4-carboxylic acid [5-(3-methoxy-phenyl)-2-oxo-5-phenyl-2,3-dihydro-1H-benzo[e][1,4]diazepin-3-yl]-amide [Example 167] | > 100 | >100 | 9 |
| Thiophene-2-carboxylic acid [5-(3-chloro-phenyl)-2-oxo-5-phenyl-2,3-dihydro-1H-benzo[e][1,4]diazepin-3-yl]-amide [Example 157] | > 100 | 100 | 5 |
| Thiophene-2-carboxylic acid [5-(3-methoxy-phenyl)-2-oxo-5-phenyl-2,3-dihydro-1H-benzo[e][1,4]diazepin-3-yl]-amide [Example 164] | 100 | 100 | 4 |
